Earlier results in patent US6601275B2, “Method and composition for embalming” (United Biotechnologies, L.L.C., priority 2000, dated 2003).

C=O [formaldehyde]
airborne concentration causing irritation of the eyes nose and throat (airborne): above 0.1 ppm | airborne concentration immediately dangerous to life and health (airborne): 100 ppm | carcinogenicity (human): potential human carcinogen
